From patent US20070004660A1, “Synergistic Modulation of Flt3 Kinase Using Alkylquinolines and Alkylquinazolines” (priority 2005, published 2007)

Legend:
[1] = biological target: T1, isolated kinase domain of the human FLT3 receptor (a.a. 571-993) (Homo sapiens, UniProt P36888); assay: FLT3 fluorescence polarization kinase assay; assay type: biochemical; details: 150 uM ATP; uncertainty ±10%
T1 construct: human FLT3 receptor (a.a. 571-993)
T1 sequence (P36888 571-993): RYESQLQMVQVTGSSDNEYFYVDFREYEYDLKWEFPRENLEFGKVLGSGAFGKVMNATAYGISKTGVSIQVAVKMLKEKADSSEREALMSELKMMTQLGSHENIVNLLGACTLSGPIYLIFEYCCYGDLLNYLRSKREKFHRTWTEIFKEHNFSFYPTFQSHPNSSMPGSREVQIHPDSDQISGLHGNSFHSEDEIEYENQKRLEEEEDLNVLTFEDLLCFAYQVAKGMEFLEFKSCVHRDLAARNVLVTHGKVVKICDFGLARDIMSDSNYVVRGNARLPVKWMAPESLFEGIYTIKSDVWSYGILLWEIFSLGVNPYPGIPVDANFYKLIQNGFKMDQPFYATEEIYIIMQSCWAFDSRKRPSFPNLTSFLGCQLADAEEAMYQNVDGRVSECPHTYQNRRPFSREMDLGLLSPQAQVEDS
Description: The FLT3 FP assay utilizes the fluorescein-labeled phosphopeptide and the anti-phosphotyrosine antibody included in the Panvera Phospho-Tyrosine Kinase Kit (Green) supplied by Invitrogen. When FLT3 phosphorylates polyGlu4Tyr, the fluorescein-labeled phosphopeptide is displaced from the anti-phosphotyrosine antibody by the phosphorylated poly Glu4Tyr, thus decreasing the FP value. The FLT3 kinase reaction is incubated at room temperature for 30 minutes under the following conditions: 10 nM FLT3 571-993, 20 ug/mL poly Glu4Tyr, 150 uM ATP, 5 mM MgCl2, 1% compound in DMSO. The kinase reaction is stopped with the addition of EDTA. The fluorescein-labeled phosphopeptide and the anti-phosphotyrosine antibody are added and incubated for 30 minutes at room temperature.
All data points are an average of triplicate samples. Inhibition and IC50 data analysis was done with GraphPad Prism using a non-linear regression fit with a multiparamater, sigmoidal dose-response (variable slope) equation.

MV4-11 cells = assay: Inhibition of MV4-11 cell proliferation (CellTiterGlo, 72 h); assay type: cell-based; details: Homo sapiens; 72 h growth inhibition; uncertainty ±20%
Description: MV4-11 cells cannot grow and survive without active FLT3ITD.
To measure proliferation inhibition by test compounds, the luciferase based CellTiterGlo reagent (Promega), which quantifies total cell number based on total cellular ATP concentration, was used. Cells are plated at 10,000 cells per well in 100 ul of in RPMI media containing penn/strep, 10% FBS and 1 ng/ml GM-CSF or 1 ng/ml IL-3 for MV4-11 and Baf3 cells respectively.
Compound dilutions or 0.1% DMSO (vehicle control) are added to cells and the cells are allowed to grow for 72 hours at standard cell growth conditions (37° C., 5% CO2). For activity measurements in MV4-11 cells grown in 50% plasma, cells were plated at 10,000 cells per well in a 1:1 mixture of growth media and human plasma (final volume of 100 μL). To measure total cell growth an equal volume of CellTiterGlo reagent was added to each well, according to the manufacturer's instructions, and luminescence was quantified. Total cell growth was quantified as the difference in luminescent counts (relative light units, RLU) of cell number at Day 0 compared to total cell number at Day 3 (72 hours of growth and/or compound treatment). One hundred percent inhibition of growth is defined as an RLU equivalent to the Day 0 reading. Zero percent inhibition was defined as the RLU signal for the DMSO vehicle control at Day 3 of growth. All data points are an average of triplicate samples. […] Inhibition and IC50 data analysis was done with GraphPad Prism using a non-linear regression fit with a multiparamater, sigmoidal dose-response (variable slope) equation.
MV4-11 cells express the FLT3 internal tandem duplication mutation, and thus are entirely dependent upon FLT3 activity for growth. […] In contrast, the Baf3 cell proliferation is driven by the cytokine IL-3 and thus are used as a non-specific toxicity control for test compounds.

| SMILES | IC50 [1] [nM] | IC50 (MV4-11 cells) [nM] |
| --- | --- | --- |
| COc1ccc2ncnc(C3CCN(C(=O)Nc4ccc(OC(C)C)cc4)CC3)c2c1 [Compound 203, 4-(6-Methoxy-quinazolin-4-yl)-piperidine-1-carboxylic acid (4-isopropoxy-phenyl)-amide] | 297 | 149 |
| COc1cc2c(C3CCN(C(=O)Nc4ccc(N5CCCC5)cc4)CC3)ncnc2cc1OCCCN1CCN(C)CC1 [Compound 208, 4-{6-Methoxy-7-[3-(4-methyl-piperazin-1-yl)-propoxy]-quinazolin-4-yl}-piperidine-1-carboxylic acid (4-pyrrolidin-1-yl-phenyl)-amide] | 2 | 3 |
| CN1CCN(c2ccc3ncnc(C4CCN(C(=O)Nc5ccc(N6CCOCC6)cc5)CC4)c3c2)CC1 [Compound 198, 4-[6-(4-Methyl-piperazin-1-yl)-quinazolin-4-yl]-piperidine-1-carboxylic acid (4-morpholin-4-yl-phenyl)-amide] | 10200 | 227 |
| CN(C)C(=O)N1CCN(c2ccc3c(C4CCN(C(=O)Nc5ccc(N6CCCC6)cc5)CC4)ncnc3c2)CC1 [Example 168, 4-{4-[1-(4-Pyrrolidin-1-yl-phenylcarbamoyl)-piperidin-4-yl]-quinazolin-7-yl}-piperazine-1-carboxylic acid dimethylamide] | 3 | 17 |
| COc1cc2ncnc(C3CCN(C(=O)Nc4ccc(N5CCCCC5)c(Cl)c4)CC3)c2cc1OC [Example 71, 4-(6,7-Dimethoxy-quinazolin-4-yl)-piperidine-1-carboxylic acid (3-chloro-4-piperidin-1-yl-phenyl)-amide] | 139 | 110 |
| CC(C)c1ccc(NC(=O)N2CCC(c3ccnc4ccccc34)CC2)cc1 [Example 5, 4-Quinolin-4-yl-piperidine-1-carboxylic acid (4-isopropyl-phenyl)-amide] | 94 | 290 |
| O=C(Nc1ccc(N2CCOCC2)nc1)N1CCC(c2ncnc3cc(OCCCn4cnnc4)ccc23)CC1 [Example 110, 4-[7-(3-[1,2,4]Triazol-4-yl-propoxy)-quinazolin-4-yl]-piperidine-1-carboxylic acid (6-morpholin-4-yl-pyridin-3-yl)-amide] | 28 | 893 |
| CS(=O)(=O)N1CC[C@@H](Oc2ccc3c(C4CCN(C(=O)Nc5ccc(N6CCCC6)cc5)CC4)ncnc3c2)C1 [Compound 177, (R)-4-[7-(1-Methanesulfonyl-pyrrolidin-3-yloxy)-quinazolin-4-yl]-piperidine-1-carboxylic acid (4-pyrrolidin-1-yl-phenyl)-amide] | 1 | 265 |
| COCC(=O)N1CCN(c2ccc3c(C4CCN(C(=O)Nc5ccc(N6CCCC6)cc5)CC4)ncnc3c2)CC1 [Compound 200] | 21 | 6 |
| COc1cc2ncnc(C3CCN(C(=O)Nc4ccc5c(c4)CCO5)CC3)c2cc1OC [Example 27, 4-(6,7-Dimethoxy-quinazolin-4-yl)-piperidine-1-carboxylic acid (2,3-dihydro-benzofuran-5-yl)-amide] | 2000 | 4100 |
| O=C(Nc1ccc(N2CCCC2)cc1)N1CCC(c2ncnc3cc(N4CC[C@H](O)C4)ccc23)CC1 [Example 129, (S)-4-[7-(3-Hydroxy-pyrrolidin-1-yl)-quinazolin-4-yl]-piperidine-1-carboxylic acid (4-pyrrolidin-1-yl-phenyl)-amide] | 1 | 9 |
| CN1CCN(CCCOc2ccc3c(C4CCN(C(=S)Nc5ccc(N6CCOCC6)nc5)CC4)ncnc3c2)CC1 [Example 106, 4-{7-[3-(4-Methyl-piperazin-1-yl)-propoxy]-quinazolin-4-yl}-piperidine-1-carbothioic acid (6-morpholin-4-yl-pyridin-3-yl)-amide] | 2200 | 1000 |
| CN(C)c1c(NCCCOc2ccc3c(C4CCN(C(=O)Nc5ccc(N6CCCC6)nc5)CC4)ncnc3c2)c(=O)c1=O [Example 111, 4-{7-[3-(2-Dimethylamino-3,4-dioxo-cyclobut-1-enylamino)-propoxy]-quinazolin-4-yl}-piperidine-1-carboxylic acid (6-pyrrolidin-1-yl-pyridin-3-yl)-amide] | 19 | 625 |
| COc1cc2ncnc(C3CCN(C(=O)Nc4ccc(OC(F)(F)F)cc4)CC3)c2cc1OC [Example 50, 4-(6,7-Dimethoxy-quinazolin-4-yl)-piperidine-1-carboxylic acid (4-trifluoromethoxy-phenyl)-amide] | 83 | 131 |
| COc1cc2ncnc(C3CCN(C(=O)Nc4ccc(C)cc4)CC3)c2cc1OC [Example 48, 4-(6,7-Dimethoxy-quinazolin-4-yl)-piperidine-1-carboxylic acid p-tolylamide] | 1600 | 1800 |
| COc1cc2ncnc(C3CCN(C(=O)Nc4ccc(N5CCN(C)CC5)cc4)CC3)c2cc1OC [Example 20, 4-(6,7-Dimethoxy-quinazolin-4-yl)-piperidine-1-carboxylic acid [4-(4-methyl-piperazin-1-yl-phenyl)]-amide] | 6600 | 1100 |
| O=C(NCCCOc1ccc2c(C3CCN(C(=O)Nc4ccc(N5CCOCC5)nc4)CC3)ncnc2c1)N1CCOCC1 [Example 113, Morpholine-4-carboxylic acid (3-{4-[1-(6-morpholin-4-yl-pyridin-3-ylcarbamoyl)-piperidin-4-yl]-quinazolin-7-yloxy}-propyl)-amide] | 132 | 360 |
| COc1cc2ncnc(C3CCN(C(=O)NC4CCCCC4)CC3)c2cc1OC [Example 42, 4-(6,7-Dimethoxy-quinazolin-4-yl)-piperidine-1-carboxylic acid cyclohexylamide] | > 10000 | > 10000 |
| COc1cc2ncnc(C3CCN(C(=O)Nc4ccc(N5CCCCCC5)cc4)CC3)c2cc1OC [Example 70, 4-(6,7-Dimethoxy-quinazolin-4-yl)-piperidine-1-carboxylic acid (4-azepan-1-yl-phenyl)-amide] | 27 | 8 |
| O=C(Nc1ccc(N2CCCC2)nc1)N1CCC(c2ncnc3cc(OCCCn4cnnc4)ccc23)CC1 [Example 114, 4-[7-(3-[1,2,4]Triazol-4-yl-propoxy)-quinazolin-4-yl]-piperidine-1-carboxylic acid (6-pyrrolidin-1-yl-pyridin-3-yl)-amide] | 9 | 178 |
| COc1ccc(NC(=O)N2CCC(c3ncnc4cc(OC)c(OC)cc34)CC2)cc1 [Example 41, 4-(6,7-Dimethoxy-quinazolin-4-yl)-piperidine-1-carboxylic acid (4-methoxy-phenyl)-amide] | 730 | 3300 |
| O=C(Nc1ccc(N2CCOCC2)cc1)N1CCC(c2ncnc3cc(N4CC[C@@H](O)C4)ccc23)CC1 [Example 126, (R)-4-[7-(3-Hydroxy-pyrrolidin-1-yl)-quinazolin-4-yl]-piperidine-1-carboxylic acid (4-morpholin-4-yl-phenyl)-amide] | 25 | 96 |
| CC(C)Oc1ccc(NC(=O)N2CCC(c3ncnc4cc(OCCCc5nnn[nH]5)ccc34)CC2)cc1 [Compound 204, 4-{7-[3-(1H-Tetrazol-5-yl)-propoxy]-quinazolin-4-yl}-piperidine-1-carboxylic acid (4-isopropoxy-phenyl)-amide] | 306 | > 1000 |
| COc1cc2ncnc(C3CCN(C(=O)Nc4ccc(C(F)(F)F)cc4)CC3)c2cc1OC [Example 46, 4-(6,7-Dimethoxy-quinazolin-4-yl)-piperidine-1-carboxylic acid (4-trifluoromethyl-phenyl)-amide] | 990 | 2000 |
